Measured values taken from patent US8629242B2, “Methods of inhibiting calcineurin with ApoE analogs” (Cognosci, Inc., priority 2007, dated 2014).
Like-named read-outs stand apart in the source and are kept apart here. Where a SMILES comes first, the peptide text is derived from it. [ ]: non-standard residue; d: D form. Aib = CC(C)(N)C(=O)O

Columns and labels:
[1] = test system: oligodendrocyte precursor cells (OPC)/microglia mixed culture; assay: LPS-induced OPC cell death in OPC/microglia mixed culture; format: cell-based, rat; settings: 1 μM, LPS 10 ng/ml; for OPC cell death by LDH and MTT assays: 24 hours
Description: FIG. 9. COG 112 protects OPCs from LPS-induced cell death in OPC/microglia mixed culture. LPS (final conc. 10 ng/ml) was added to an OPC/microglia mixed culture with or without 1 μM COG 112. The prefix peptide of COG 112, antennapedia, was used as a negative control. Cells were fixed with 4% formaldehyde and stained with the OPC marker, NG2, and counterstained with hoescht. (A) LPS-treated cultures; (B) LPS+antennapedia (Antp)-treated cultures; (C) LPS+COG 112-treated cultures; (D) Bar graph summarizing the number of NG2+ cells per field in each condition. ** p<0.01.
FIG. 19. COG 345 promotes remyelination in lysolecithin-induced demyelination model of cerebellum slices. Significant demyelination was induced by lysolecithin (0.5 mg/ml) in cerebellar slices. COG 112 or COG 345 (1 μM) was added on day 3 when full demyelination was achieved. 4 days later, the slices were fixed and double stained with myelin marker MBP (green) and Purkinje cell marker calbindin (red). (A) Untreated-slices; (B) lysolecithin-treated slices; (C) COG 112-treated slices after lysolecithin exposure; (D) COG 345-treated slices after lysolecithin exposure. E-F. ApoE analogs protect OPCs from LPS-induced cell death in OPC/microglia mixed culture. OPCs and microglia derived from brain culture of P2 rat pups were plated in 96-well plates in 1:1 ratio. LPS (10 ng/ml) together with 1 μM of the indicated ApoE analogs was added to the cultures. After 24 hours, OPC cell death was quantified by LDH assay (E) and MTT assay (F). Statistical analysis was conducted by one-way ANOVA followed by Dunnett comparison vs. LPS group. * P<0.01, ** P<0.001, n=3.
A primary culture prepared from the brains of P2 Sprague-Dawley rat pups was grown for seven days. Microglia and OPCs were shaken off from the primary culture with an orbital shaker at 150˜200 rpm. The OPCs and microglia were plated in 24-well plates at a 1:1 ratio with 5×10^4 cells per well of each cell type. After 24 hours, LPS (final conc. 10 ng/ml) was added with or without 1 μM COG 112. The prefix peptide of COG 112, antennapedia, was used as a negative control. After incubation for 72 hours, the medium was removed and cells were fixed with 4% formaldehyde and stained with the OPC marker, NG2, and counterstained with hoescht. Five fields from each of the wells were randomly chosen to count the number of NG2-positive cells.
To further assess the ability of the novel ApoE analogs to promote remyelination, the effect of the analogs on OPC survival was assessed in an OPC/microglia mixed culture. OPC and microglia derived from primary culture of P2 rat pup brain were plated on 96-well plates in 1:1 ratio. […] After 24 hours, cell death of OPC was quantified by both LDH and MTT assays.

[2] = test system: animal model of human diseases; assay: Minimum effective dose in animal models; format: in vivo
Maximum tolerated dose = format: in vivo; settings: for MTD: in vivo
Excerpt: To fully evaluate the use of ApoE analogs as therapeutic compounds, the margin of safety should also be determined. Towards that end, we determined the maximum tolerated dose of COG 112, COG 248, and COG 345 when administered by intravenous and subcutaneous injection.

Calcineurin = molecular target: T1, Calcineurin (Homo sapiens, UniProt Q08209); assay: Cell-free calcineurin phosphatase activity assay (BioMol kit); format: biochemical; settings: various concentrations
T1 construct: purchased BioMol AK-804
Description: FIG. 14. ApoE analogs bind directly to calcineurin and inhibit its activity. […] (B) Immunoprecipitation of human brain lysate with a biotin-COG 133 conjugate. Lane 1=markers; lane 2=clear bead; lane 3=biotin-COG 133 bead conjugate; and lane 4=10 μg lysate. (C) Immunoprecipitation of different glial cultures with a biotin-COG 133 conjugate. Lane 1=markers; lane 2=astrocyte; lane 3=microglia; and lane 4=oligodendrocyte precursor cells (OPC). Blots in B and C were probed for calcineurin (PP2B).
Calcineurin activity was measured in a cell-free in vitro assay in the presence of various concentrations of COG 133 (SEQ ID NO: 1), COG 112 (SEQ ID NO: 5), COG 68 (SEQ ID NO: 7), COG 125 (Ac-AS(Aib)LRKL(Aib)KR—COOH; SEQ ID NO: 8), or antennapedia (antp), the prefix peptide for COG 112. […] Using a BioMol Calcineurin Phosphatase Activity Kit (Cat. #AK-804), the assay was conducted according to manufacturer's instructions. […] This inhibition of calcineurin activity by ApoE analogs is mediated by a direct interaction of the ApoE analog with the phosphatase.

[3] = test system: PLP-induced relapsing-remitting experimental autoimmune encephalomyelitis (EAE) model; assay: PLP-induced relapsing-remitting EAE model; format: in vivo; parameters: CSmax during relapse (mean ± SEM) / Area under curve (mean ± SEM): scale not given here; settings: 4 mg/kg s.c.; for Area under curve (mean ± SEM): clinical score vs days post-inoculation, out to 60 days; for CSmax during relapse (mean ± SEM): maximal clinical score during relapse; for Relapse Rate: number of animals experiencing a relapse
Description: To further compare the activity of the various ApoE analogs, the efficacy of the analogs was assessed in a PLP-induced relapsing-remitting experimental autoimmune encephalomyelitis (EAE) model. […] The second dose was administered the next day followed by three times a week (M, W, F). Relapse rate represents the number of animals experiencing a relapse, while the CSmax indicates the maximal clinical score during relapse. Area under curve represents the area under the curve in a plot of clinical score vs. days post-inoculation (out to 60 days). […] The improvement in relapse rate and clinical score in the EAE model by ApoE analog treatment may be due, in part, to the remyelination-promoting effect of the ApoE analogs.

[4] = sc, subcutaneous injection, read-out: Maximum Tolerated Dose Subcutaneous
[5] = intravenous injection, read-out: Maximum Tolerated Dose Intravenous

| Compound | OPC cell death by LDH and MTT assays [1] | LPS-induced cell death of OPCs (number of NG2-positive cells) ([1]; 72 hours) | Minimum Effective Dose (model) ([2]; models: EAE, TBI) | MTD (Maximum tolerated dose; [4]) [mg/kg] | MTD (Maximum tolerated dose; [5]) [mg/kg] | inhibition of calcineurin activity (Calcineurin) | Area under curve (mean ± SEM) [3] | CSmax during relapse (mean ± SEM) [3] | Relapse Rate [3] | Minimum Effective Dose (model) ([2]; model: EAE) | safety profile by intravenous injection (Maximum tolerated dose; compared to the other analogs on a molar basis) | improvement in relapse rate and maximum clinical score during relapse [3] | Minimum Effective Dose (model) ([2]; models: CIA, EAE) |
| --- | --- | --- | --- | --- | --- | --- | --- | --- | --- | --- | --- | --- | --- |
| Ac-RQIKIWFQNRRMKWKKCLRVRLASHLRKLRKRLL-NH2 [COG 112] | most potent | significantly reduced LPS-induced cell death of OPCs | 1 mg/kg (EAE, TBI) | > 100 | 28 | dose-dependent inhibition | 16.7 ± 3.6 | 2.4 ± 0.8 | 5/14 | – | – | – | – |
| CC(=O)NC(=N)NCCC[C@H](NC(=O)[C@H](CCCCN)NC(=O)[C@H](CCCNC(=N)N)NC(=O)[C@H](CC(C)C)NC(=O)[C@H](CCCCN)NC(=O)[C@H](CCCNC(=N)N)NC(=O)[C@H](CC(C)C)NC(=O)C(C)(C)NC(=O)[C@H](CO)NC(=O)[C@H](C)NC(=O)[C@H](CC(C)C)NC(=O)[C@H](CCCNC(=N)N)NC(=O)[C@@H](NC(=O)[C@H](CCCNC(=N)N)NC(=O)[C@H](CC(C)C)NC(C)=O)C(C)C)C(=O)N[C@@H](CC(C)C)C(=O)N[C@@H](CC(C)C)C(N)=O [COG 345, acetyl-LRVRLAS-Aib-LRKLRK(acetyl-Arg)LL-amide] (Ac-LRVRLAS[Aib]LRKLRKR(Ac)LL-NH2) | most potent | – | – | > 150 | 20 to 25 | – | 15.5 ± 2.5 | 1.4 ± 0.2 | 4/15 | 1 mg/kg (EAE) | superior safety profile | significant improvement | – |
| CC(=O)N[C@@H](CC(C)C)C(=O)N[C@@H](CCCNC(=N)N)C(=O)N[C@H](C(=O)N[C@@H](CCCNC(=N)N)C(=O)N[C@@H](CC(C)C)C(=O)N[C@@H](C)C(=O)N[C@@H](CO)C(=O)N[C@@H](Cc1c[nH]cn1)C(=O)N[C@@H](CC(C)C)C(=O)N[C@@H](CCCNC(=N)N)C(=O)N[C@@H](CCCCN)C(=O)N[C@@H](CC(C)C)C(=O)N[C@@H](CCCNC(=N)N)C(=O)N[C@@H](CCCCN)C(=O)N[C@@H](CCCNC(=N)N)C(=O)N[C@@H](CC(C)C)C(=O)N[C@@H](CC(C)C)C(N)=O)C(C)C [COG 133] | – | – | – | > 100 | 16 | dose-dependent inhibition | 25.3 ± 8.3 | 3.2 ± 0.7 | 7/14 | – | – | – | 1 mg/kg (CIA, EAE) |
